Results from publication PMC12592400, “A unique inhibitor conformation selectively targets the DNA polymerase PolC of Gram-positive priority pathogens” (Nature Communications, 2025).

Assays:
E. faecium ATCC 700221 = assay: Frequency of resistance (FOR) study; assay type: cell-based, Enterococcus faecium; details: for CFU total count (48h): replicates 1-2; for Number of reduced susceptible colonies: Suppl. Table 2
Method: Strains with reduced susceptibility to ACX compounds were generated by WuXi Apptec on behalf of Acurx Pharmaceuticals, Inc., using E. faecium ATCC 700221 as parental strain.
Agar MICs for the wild-type strain were determined on Blood agar (Huankai). Compounds and linezolid were dissolved in 100% DMSO and vancomycin in ultrapure water. Strains were inoculated onto agar plates, incubated at 37 °C for 20-24 h after which colonies were suspended in sterile 0.9% saline at different bacterial concentrations. 5 μL of bacterial suspensions was individually spotted on agar plates supplemented with compounds at different concentrations, resulting in final concentrations of 10^–1, 10^–2, 10^–3, 10^–4, 10^–5, 10^–6, and 10^–7 per spot. After incubation for 20-24 h, bacterial growth was assessed by visual inspection.
For frequency of resistance (FOR) studies, colonies from the agar plate were suspended into sterile 0.9% saline to get 10^8-10^9 CFU bacterial cells per mL. […] The suspensions were also serially diluted with 0.9% saline and spotted onto agar to determine the actual inoculum. All agar plates were incubated at 37 °C for 48 h. FOR was defined as colony number on each compound-containing plate per CFU number of actual inoculum. Resistant colonies were subcultured on the corresponding compound plates to confirm that colonies were resistant and stable.

[1] = test system: C. difficile strain carrying a F1258L mutation; assay: MIC of C. difficile strain obtained by one-step passage; assay type: cell-based; details: Clostridioides difficile
[2] = parameters: method as in PMID 35134880, PMID 32892222; details: cited from earlier work

| Compound | CFU total count (48h) (E. faecium ATCC 700221; 1x MIC (ACX-728 2, ACX-641 0.5, ACX-671 1, ACX-763 4, Linezolid 2 mg/L), inoculum 1.3E+07 CFU/plate) | CFU total count (48h) (E. faecium ATCC 700221; 1x MIC (ACX-728 2, ACX-641 0.5, ACX-671 1, ACX-763 4, Linezolid 2 mg/L), inoculum 1.3E+08 CFU/plate) | CFU total count (48h) (E. faecium ATCC 700221; 2x MIC (ACX-728 4, ACX-641 1, ACX-671 2, ACX-763 8, Linezolid 4 mg/L), inoculum 1.3E+07 CFU/plate) | CFU total count (48h) (E. faecium ATCC 700221; 2x MIC (ACX-728 4, ACX-641 1, ACX-671 2, ACX-763 8, Linezolid 4 mg/L), inoculum 1.3E+08 CFU/plate) | CFU total count (48h) (E. faecium ATCC 700221; 4x MIC (ACX-728 8, ACX-641 2, ACX-671 4, ACX-763 16, Linezolid 8 mg/L), inoculum 1.3E+07 CFU/plate) | CFU total count (48h) (E. faecium ATCC 700221; 4x MIC (ACX-728 8, ACX-641 2, ACX-671 4, ACX-763 16, Linezolid 8 mg/L), inoculum 1.3E+08 CFU/plate) | CFU total count (48h) (E. faecium ATCC 700221; 8x MIC (ACX-728 16, ACX-641 4, ACX-671 8, ACX-763 32, Linezolid 16 mg/L), inoculum 1.3E+07 CFU/plate) | CFU total count (48h) (E. faecium ATCC 700221; 8x MIC (ACX-728 16, ACX-641 4, ACX-671 8, ACX-763 32, Linezolid 16 mg/L), inoculum 1.3E+08 CFU/plate) | CFU total count (48h) (E. faecium ATCC 700221; 16x MIC (ACX-728 32, ACX-641 8, ACX-671 16, ACX-763 64, Linezolid 32 mg/L), inoculum 1.3E+07 CFU/plate) | CFU total count (48h) (E. faecium ATCC 700221; 16x MIC (ACX-728 32, ACX-641 8, ACX-671 16, ACX-763 64, Linezolid 32 mg/L), inoculum 1.3E+08 CFU/plate) | Number of reduced susceptible colonies (E. faecium ATCC 700221; Fold MIC 2, 1.3E+07 cells plated) | Number of reduced susceptible colonies (E. faecium ATCC 700221; Fold MIC 2, 1.3E+08 cells plated) | Number of reduced susceptible colonies (E. faecium ATCC 700221; Fold MIC 4, 1.3E+07 cells plated) | Number of reduced susceptible colonies (E. faecium ATCC 700221; Fold MIC 4, 1.3E+08 cells plated) | Number of reduced susceptible colonies (E. faecium ATCC 700221; Fold MIC 8, 1.3E+07 cells plated) | Number of reduced susceptible colonies (E. faecium ATCC 700221; Fold MIC 8, 1.3E+08 cells plated) | Number of reduced susceptible colonies (E. faecium ATCC 700221; Fold MIC 16, 1.3E+07 cells plated) | Number of reduced susceptible colonies (E. faecium ATCC 700221; Fold MIC 16, 1.3E+08 cells plated) | MIC [1] [mg/L] | solubility [2] |
| --- | --- | --- | --- | --- | --- | --- | --- | --- | --- | --- | --- | --- | --- | --- | --- | --- | --- | --- | --- | --- |
| CC(=O)NC[C@H]1CN(c2ccc(N3CCOCC3)c(F)c2)C(=O)O1 [LZD, linezolid] | TMTC | TMTC | TMTC | TMTC | TMTC | TMTC | TMTC | TMTC | TMTC | TMTC | TMTC | TMTC | TMTC | TMTC | TMTC | TMTC | TMTC | TMTC |  |  |
| O=c1[nH]c(NCc2ccc(Cl)c(Cl)c2)nc2ncn(CCN3CCOCC3)c12 [IBZ, N^2-(3,4-dichlorobenzyl)-7-(2-[1-morpholinyl]ethyl)guanine] |  |  |  |  |  |  |  |  |  |  |  |  |  |  |  |  |  |  | 64 | low |
